Data on one compound can be found in patent US20200360426A1, “PROTOCOL AND COMPOSITION FOR SUPPRESSION OF ALLERGIC RESPONSES” (priority 2019, published 2020).

The assay has as its system apheresis patients (allergic reaction to dextran sulfate).

Text: The protocol begins with the oral administration of an antacid and a histamine blocker. […] The histamine blocker can be selected from a number of commercial alternatives. These include, specifically, H-1 blockers, such as loratadine, fexofenadine and azelastine.
Centrally important and essential is the administration of magnesium, preferably magnesium IV, available as magnesium sulfate. Administration of magnesium sulfate, shortly in advance of apheresis, serves to relax the vascular system, and shift the patient or a sympathetic response to a parasympathetic vascular relaxation response. Magnesium realizes and calms the sympathetic FFF response, the survival instinct that is so prevalent in angioedema. […] While it can be infused over a longer period of more than one hour, a preferred protocol infuses it very rapidly. […] A drip in 100 ml-250 ml normal physiologic saline solution (Ns) or lactated Ringers solution (LR) has been employed. Other carriers, such as dextrose in water (5%) (D5W) or sterile water at smaller volumes, or similar physiologically compatible carriers may be used. A faster drip of not more than 30 minutes is preferable, and may be essential to intervene in and reduce ongoing severe reactions.
When the apheresis is done, dextran sulfate exposure can still cause a reaction. […] Apheresis patients also get oxygen via canula, 2-4 liters a minute through the procedure. […]

In the case of `O=S(=O)([O-])[O-].[Mg+2]` [magnesium sulfate], where the note is “full protocol: ACE inhibitors stopped at least a week before, antacid and H-1 histamine blocker, magnesium sulfate IV no more than an hour before apheresis, at least 60 apheresis treatments, at least thirty patients”, the “allergic reactions observed during dextran sulfate apheresis” value was “no issues and little or no allergic reactions were observed”. Further, for the setting “seven patients with previous anaphylactoid shock reaction to Liposorber even with IV steroids, magnesium sulfate without any supportive or additional treatments”, the “tolerance of Liposorber apheresis treatment” value was “allowed all 7 patients to tolerate the treatment”.
